Experimental data reported in patent US11236084B2, “Substituted azaindoline derivatives as NIK inhibitors” (Janssen Pharmaceutica NV, priority 2017, dated 2022).
Like-named read-outs stand apart in the source and are kept apart here.

How the values were obtained:
[1] = tested on: P-IKKα levels in L363 (NIK translocated multiple myeloma) cells; assay: Biological Assay C: effect of compounds on P-IKKα levels in L363 (NIK translocated multiple myeloma) cells, performed at 2 locations; format: cell-based, human; conditions: averaged values
Description: Effect of Compounds on P-IKKα Levels in L363 (NIK Translocated Multiple Myeloma) Cells
All compounds tested were dissolved in DMSO and further dilutions were made in culture medium. Final DMSO concentration was 1% (v/v) in cell assays. The human L363 cells (ATCC) were cultured in RPMI 1640 medium supplemented with GlutaMax and 10% fetal calf serum (PAA). Cells were routinely maintained at densities of 0.2×10^6 cells per ml-1×10^6 cells per ml at 37° C. in a humidified 5% CO2 atmosphere. Cells were passaged twice a week splitting back to obtain the low density. Cells were seeded in 96 well plates (Nunc 167008) at 2×10^6 per ml media in a volume of 75 μl per well plus 25 μl […] recombinant human B-cell activating factor (BAFF/BLyS/TNFSF13B). Seeded cells were incubated at 37° C. in a humidified 5% CO2 atmosphere for 24 hr. Drugs and/or solvents were added (20 μl) to a final volume of 120 μl. Following 2 hr treatment plates were removed from the incubator and cell lysis was achieved by the addition of 30 μl 5× lysis buffer followed by shaking on a plate shaker at 4° C. for 10 min. At the end of this incubation lysed cells were centrifuged at 800×g for 20 min at 4° C. and the lysate was assessed for P-IKKα levels by sandwich immuno-assay carried out in anti-rabbit antibody coated Mesoscale plates. Within an experiment, the results for each treatment were the mean of 2 replicate wells. For initial screening purposes, compounds were tested using an 8 point dilution curve (serial 1:3 dilutions). For each experiment, controls (containing MG132 and BAFF but no test drug) and a blank incubation (containing MG132 and BAFF and 1 μM ADS125117, a test concentration known to give full inhibition) were run in parallel. The blank incubation value was subtracted from all control and sample values. To determine the IC50 a sigmoidal curve was fitted to the plot of % inhibition of control P-IKKα levels versus Log10 compound concentration.
Assay C was performed at 2 different locations.
Data for the compounds of the invention in the above assays are provided in Table A (the values in Table are averaged values over all measurements on all batches of a compound; values as IC50 (nM)). (‘n.c.’ means not calculated: ‘Co.’ means compound)

[2] = biological target: recombinant human NF-kappaB-inducing kinase (NIK/MAP3K14) (Homo sapiens, UniProt Q99558); assay: Biological Assay B: inhibition of auto-phosphorylation of recombinant human NIK/MAP3K14 (AlphaScreen), performed at 2 locations; format: biochemical; conditions: averaged values
How it was run: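 Run at two separate sites: 1 h, 25° C. reactions containing 0.2 nM GST-NIK, 25 microM ATP and compound (1% DMSO) in Tris pH 7.5/MgCl2 buffer. Phosphorylation detected via anti-phospho-IKK Ser176/180 antibody with AlphaScreen beads; IC50 fitted to % inhibition.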

[3] = Homo sapiens, L-363, location 2, L363 cells, P-IKKα levels, read-out: Assay C location 2 IC50
[4] = location 2, AlphaScreen auto-phosphorylation, read-out: Assay B location 2 IC50
[5] = Homo sapiens, L-363, location 1, L363 cells, P-IKKα levels, read-out: Assay C location 1 IC50
[6] = location 1, AlphaScreen auto-phosphorylation, read-out: Assay B location 1 IC50
[7] = location 1, NIK auto-phosphorylation, AlphaScreen, read-out: Assay B location 1 IC50

Sequence of recombinant human NF-kappaB-inducing kinase (NIK/MAP3K14) (Q99558 whole entry): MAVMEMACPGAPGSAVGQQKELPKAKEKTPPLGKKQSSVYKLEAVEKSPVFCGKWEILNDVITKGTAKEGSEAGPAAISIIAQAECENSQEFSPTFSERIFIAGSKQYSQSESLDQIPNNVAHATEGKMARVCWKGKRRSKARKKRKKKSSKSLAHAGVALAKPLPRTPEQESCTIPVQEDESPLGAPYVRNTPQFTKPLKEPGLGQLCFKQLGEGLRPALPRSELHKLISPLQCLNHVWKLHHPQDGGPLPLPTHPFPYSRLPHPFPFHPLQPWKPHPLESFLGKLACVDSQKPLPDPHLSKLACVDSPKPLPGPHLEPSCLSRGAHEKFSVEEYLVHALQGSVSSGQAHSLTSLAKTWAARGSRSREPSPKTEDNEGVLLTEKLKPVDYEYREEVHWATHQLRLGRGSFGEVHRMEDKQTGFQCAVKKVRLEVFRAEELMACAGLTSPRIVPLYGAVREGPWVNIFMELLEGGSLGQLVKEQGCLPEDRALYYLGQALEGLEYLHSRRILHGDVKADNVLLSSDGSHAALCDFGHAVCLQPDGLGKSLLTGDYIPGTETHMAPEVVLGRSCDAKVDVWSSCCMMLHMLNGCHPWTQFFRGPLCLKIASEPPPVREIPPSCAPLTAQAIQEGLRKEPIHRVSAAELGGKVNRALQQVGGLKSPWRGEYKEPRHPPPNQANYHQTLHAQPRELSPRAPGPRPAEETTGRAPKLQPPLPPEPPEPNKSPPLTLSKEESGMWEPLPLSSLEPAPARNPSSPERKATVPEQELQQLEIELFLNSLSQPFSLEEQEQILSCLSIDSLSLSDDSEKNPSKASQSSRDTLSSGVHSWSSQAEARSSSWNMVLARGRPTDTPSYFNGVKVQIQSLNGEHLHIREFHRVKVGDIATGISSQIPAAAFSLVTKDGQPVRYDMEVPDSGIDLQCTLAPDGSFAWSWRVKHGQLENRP

## COc1cc(C(=O)N2CCCCCC2)ccc1Nc1nccc(-c2cnc3c(c2)C(C)(CO)CN3)n1 (stereo not drawn) [Compound 141]
[1]; [3]
  IC50: 148 nM
[2]; [4]
  IC50: 10.2 nM

## COc1cc(C(=O)NC2CCOC2)ccc1Nc1nccc(-c2cnc3c(c2)C(C)(CO)CN3)n1 (stereo not drawn) [Compound 137]
[1]; [5]
  IC50: 339 nM
[1]; [3]
  IC50: 347 nM
[2]; [4]
  IC50: 5 nM

## COc1cc(C(=O)N2CCCC2)ccc1Nc1nccc(-c2cnc3c(c2)C(C)(CO)CN3)n1 (stereo not drawn) [Compound 138]
[1]; [3]
  IC50: 234 nM
[2]; [4]
  IC50: 6.3 nM

## CN1CCC(Oc2ccccc2Nc2nccc(-c3cnc4c(c3)C(C)(CO)CN4)n2)CC1 (stereo not drawn) [Compound 246]
[1]; [5]
  IC50: ~2000 nM
[2]; [6]
  IC50: 30.9 nM
[2]; [4]
  IC50: 17.8 nM

## COc1cc(C(=O)N2CCCC(OC)CC2)ccc1Nc1nccc(-c2cnc3c(c2)C(C)(CO)CN3)n1 (stereo not drawn) [Compound 150]
[1]; [3]
  IC50: 105 nM
[2]; [4]
  IC50: 5.4 nM

## COc1cc(N2CC(OC)C2)c(Cl)cc1Nc1nccc(-c2cnc3c(c2)C(C)(CO)CN3)n1 (stereo not drawn) [Compound 269]
[1]; [5]
  IC50: 41.7 nM
[2]; [4]
  IC50: 1.8 nM

## COc1cc(C(=O)N2CCC(OC)CC2)ccc1Nc1nccc(-c2cnc3c(c2)C(C)(CC#N)CN3)n1 (stereo not drawn) [Compound 148]
[1]; [3]
  IC50: 158 nM
[2]; [4]
  IC50: 4.8 nM

## CC1(CO)CNc2ncc(-c3ccnc(Nc4cc(Cl)ccc4S(C)(=O)=O)n3)cc21 (stereo not drawn) [Compound 335]
[1]; [5]
  IC50: > 10000 nM
[2]; [6]
  IC50: 269 nM

## CN1CCC(Oc2ccc(Cl)cc2Nc2nccc(-c3cnc4c(c3)C(C)(C)CN4)n2)CC1 [Compound 338]
[1]; Homo sapiens, L-363, 2 h, location 1, P-IKKα levels in L363 cells, 2 hr treatment, read-out: Assay C location 1 IC50
  IC50: 3890 nM
[2]; [7]
  IC50: 19.1 nM

## COc1cc(C(=O)NC2CCOCC2)ccc1Nc1nccc(-c2cnc3c(c2)C(C)(CC#N)CN3)n1 (stereo not drawn) [Compound 147]
[1]; [3]
  IC50: 52.5 nM
[2]; [4]
  IC50: 4.1 nM

## COc1cc(N2CC3(CCOCC3)C2)c(Cl)cc1Nc1nccc(-c2cnc3c(c2)C(C)(CO)CN3)n1 (single isomer, unassigned) [Compound 3S]
[1]; [5]
  IC50: 17.3 nM
[2]; [6]
  IC50: 6.7 nM
[2]; [4]
  IC50: 1.3 nM

## COc1cc(S(C)(=O)=O)c(F)cc1Nc1nccc(-c2cnc3c(c2)C(C)(CO)CN3)n1 (stereo not drawn) [Compound 12]
[1]; [5]
  IC50: 26.9 nM
[2]; [6]
  IC50: 5.4 nM
[2]; [4]
  IC50: 1.6 nM

## CN1CCC(Oc2ccc(Cl)cc2Nc2nccc(-c3cnc4c(c3)C(C)(CO)CN4)n2)CC1 (stereo not drawn) [Compound 15]
[1]; [5]
  IC50: 479 nM
[2]; [6]
  IC50: 8.5 nM

## COc1cc(N2CCC(O)CC2)c(Cl)cc1Nc1nccc(-c2cnc3c(c2)C(C)(CO)CN3)n1 (single isomer, unassigned) [Compound 343]
[1]; location 1, P-IKKα levels in L363 cells, 2 hr treatment, read-out: Assay C location 1 IC50
  IC50: ~7410 nM
[2]; [7]
  IC50: 19.1 nM

## COc1cc(N2CCOCC2)c(C#N)cc1Nc1nccc(-c2cnc3c(c2)C(C)(CO)CN3)n1 (single isomer, unassigned) [Compound 4S]
[1]; [5]
  IC50: ~151 nM
[2]; [4]
  IC50: 2.3 nM

## COc1ccccc1Nc1nccc(-c2cnc3c(c2)C(C)(CO)CN3)n1 (stereo not drawn) [Compound 151]
[1]; [5]
  IC50: ~912 nM
[1]; [3]
  IC50: 676 nM
[2]; [4]
  IC50: 17.8 nM

## COc1cc(N2CCC(N(C)C)CC2)c(Cl)cc1Nc1nccc(-c2cnc3c(c2)C(C)(CO)CN3)n1 (stereo not drawn) [Compound 277]
[1]; [5]
  IC50: 23.4 nM
[2]; [6]
  IC50: ~3 nM
[2]; [4]
  IC50: 0.4 nM

## COc1cc(C(=O)N(C)C)ccc1Nc1nccc(-c2cnc3c(c2)C(C)(CO)CN3)n1 (stereo not drawn) [Compound 153]
[1]; [3]
  IC50: 427 nM
[2]; [6]
  IC50: 18.6 nM

## COc1cc(C(=O)NC2CCOCC2)c(Cl)cc1Nc1nccc(-c2cnc3c(c2)C(C)(CO)CN3)n1 (stereo not drawn) [Compound 8]
[1]; [5]
  IC50: 8.3 nM
[2]; [6]
  IC50: 4.6 nM
[2]; [4]
  IC50: 1.6 nM

## CC(=O)NCc1ccc(C)c(Nc2nccc(-c3cnc4c(c3)C(C)(C)CN4)n2)c1 [Compound 43]
[1]; [3]
  IC50: 282 nM

## COc1cc(N2CCC(O)CC2)c(Cl)cc1Nc1nccc(-c2cnc3c(c2)C(C)(CO)CN3)n1 (stereo not drawn) [Compound 301]
[1]; [5]
  IC50: 23.4 nM
[2]; [6]
  IC50: 5.4 nM
[2]; [4]
  IC50: 1.1 nM

## CN(C)CCOc1cc(N2CCOCC2)c(Cl)cc1Nc1nccc(-c2cnc3c(c2)C(C)(CO)CN3)n1 (single isomer, unassigned) [Compound 272]
[1]; [5]
  IC50: 9120 nM
[2]; [6]
  IC50: 151 nM
[2]; [4]
  IC50: 123 nM

## COc1cc(S(C)(=O)=O)c(Cl)cc1Nc1nccc(-c2cnc3c(c2)C(C)(CO)CN3)n1 (stereo not drawn) [Compound 331]
[1]; [5]
  IC50: 79.4 nM
[2]; [6]
  IC50: 6.5 nM

## COc1cc(C(=O)NC2CCOCC2)ccc1Nc1ncc(F)c(-c2cnc3c(c2)C(C)(CO)CN3)n1 (stereo not drawn) [Compound 2]
[1]; [3]
  IC50: 69.2 nM
[2]; [6]
  IC50: 5.5 nM

## COc1cc(N2CCOCC2)c(C#N)cc1Nc1nccc(-c2cnc3c(c2)C(C)(CO)CN3)n1 (stereo not drawn) [Compound 4]
[1]; [5]
  IC50: 138 nM
[2]; [6]
  IC50: 10.5 nM
[2]; [4]
  IC50: 2.9 nM

## COc1cc(C(=O)N2CCN(C)CC2)ccc1Nc1nccc(-c2cnc3c(c2)C(C)(CO)CN3)n1 (stereo not drawn) [Compound 143]
[1]; [3]
  IC50: 224 nM
[2]; [6]
  IC50: 17 nM
[2]; [4]
  IC50: 14.5 nM

## CC(=O)NCc1cccc(Nc2nccc(-c3cnc4c(c3)C(C)(C)CN4)n2)c1C [Compound 42]
[1]; [3]
  IC50: 166 nM

## Cc1cc(C(=O)NC2CCOCC2)ccc1Nc1nccc(-c2cnc3c(c2)C(C)(C)CN3)n1 [Compound 36]
[1]; [3]
  IC50: 617 nM

## CC1(CO)CNc2ncc(-c3ccnc(Nc4ccccc4S(C)(=O)=O)n3)cc21 (stereo not drawn) [Compound 334]
[1]; [5]
  IC50: > 10000 nM
[2]; [6]
  IC50: 3980 nM

## Cc1cc(C(=O)NC2CCN(C)CC2)ccc1Nc1nccc(-c2cnc3c(c2)C(C)(C)CN3)n1 [Compound 35]
[1]; [3]
  IC50: 851 nM

## COc1cc(C(=O)N2CCCCC2)ccc1Nc1nccc(-c2cnc3c(c2)C(C)(CO)CN3)n1 (stereo not drawn) [Compound 139]
[1]; [5]
  IC50: 166 nM
[1]; [3]
  IC50: 102 nM
[2]; [6]
  IC50: 6.9 nM
[2]; [4]
  IC50: 6.9 nM

## CN(C)CCOc1cc(N2CCOCC2)c(F)cc1Nc1nccc(-c2cnc3c(c2)C(C)(CO)CN3)n1 (single isomer, unassigned) [Compound 297]
[2]; [6]
  IC50: 708 nM
[2]; [4]
  IC50: 309 nM

## Cc1c(Cl)cccc1Nc1nccc(-c2cnc3c(c2)C(C)(CO)CN3)n1 (stereo not drawn) [Compound 224]
[2]; [4]
  IC50: 38 nM

## COc1cc(-c2ccn(C)n2)ccc1Nc1nccc(-c2cnc3c(c2)C(C)(CO)CN3)n1 (stereo not drawn) [Compound 192]
[2]; [4]
  IC50: 26.9 nM

## COc1cc(N2CCN(C)CC2)c(Cl)cc1Nc1nccc(-c2cnc3c(c2)C(C)(CO)CN3)n1 (single isomer, unassigned) [Compound 303]
[2]; [6]
  IC50: 13.8 nM
[2]; [4]
  IC50: 4.8 nM

## Cc1ccc(F)cc1Nc1nccc(-c2cnc3c(c2)C(C)(CO)CN3)n1 (stereo not drawn) [Compound 198]
[2]; [4]
  IC50: 8.5 nM

## COc1cc(N2CC3(CCOCC3)C2)c(Cl)cc1Nc1ncc(Cl)c(-c2cnc3c(c2)C(C)(CO)CN3)n1 (single isomer, unassigned) [Compound 348]
[2]; [7]
  IC50: 14.8 nM

## COc1cc(C(=O)N2CCCCC2)ccc1Nc1nccc(-c2cnc3c(c2)C(C)(CO)CN3)n1 (single isomer, unassigned) [Compound 156]
[2]; [4]
  IC50: 3.2 nM

## COc1cc(-c2cnn(C)c2)ccc1Nc1nccc(-c2cnc3c(c2)C(C)(CO)CN3)n1 (stereo not drawn) [Compound 169]
[2]; [4]
  IC50: 8.9 nM

## CCC1(CCO)CNc2ncc(-c3ccnc(Nc4ccc(C(=O)N5CCC(OC)CC5)cc4OC)n3)cc21 (stereo not drawn) [Compound 159]
[2]; [4]
  IC50: 12.6 nM

## COc1cc(N2CC3(CCOCC3)C2)c(Cl)cc1Nc1nccc(-c2cnc3c(c2)C(C)(CO)CN3)n1 (single isomer, unassigned) [Compound 3R]
[2]; [6]
  IC50: 18.3 nM
[2]; [4]
  IC50: 5.7 nM

## COc1cc(OCCN2CCOCC2)c(Cl)cc1Nc1nccc(-c2cnc3c(c2)C(C)(CO)CN3)n1 (stereo not drawn) [Compound 340]
[2]; location 2, NIK auto-phosphorylation, AlphaScreen, read-out: Assay B location 2 IC50
  IC50: 2.6 nM

## COc1c(Nc2nccc(-c3cnc4c(c3)C(C)(CO)CN4)n2)cc(Cl)cc1N1CCOCC1 (stereo not drawn) [Compound 307]
[2]; [6]
  IC50: 12.3 nM
[2]; [4]
  IC50: 3.1 nM
